One assay has as its system Balb/c splenic B cells. Description: B cell activation and proliferation assay (Alamar Blue). Format: cell-based. The conditions noted are these: Mus musculus, read-out: B cell proliferation EC50. The procedure:
The ability of one or more subject compounds to inhibit B cell activation and proliferation is determined according to standard procedures known in the art. For example, an in vitro cellular proliferation assay is established that measures the metabolic activity of live cells. The assay is performed in a 96 well microtiter plate using Alamar Blue reduction. Balb/c splenic B cells are purified over a Ficoll-Paque™ PLUS gradient followed by magnetic cell separation using a MACS B cell Isolation Kit (Miletenyi). Cells are plated in 90 μl at 50,000 cells/well in B Cell Media (RPMI+10% FBS+Penn/Strep+50 μM bME+5 mM HEPES). A compound disclosed herein is diluted in B Cell Media and added in a 10 μl volume. Plates are incubated for 30 min at 37° C. and 5% CO2 (0.2% DMSO final concentration). A 50 μl B cell stimulation cocktail is then added containing either 10 μg/ml LPS or 5 μg/ml F(ab′)2 Donkey anti-mouse IgM plus 2 ng/ml recombinant mouse IL4 in B Cell Media. Plates are incubated for 72 hours at 37° C. and 5% CO2. A volume of 15 μL of Alamar Blue reagent is added to each well and plates are incubated for 5 hours at 37° C. and 5% CO2. Alamar Blue fluoresce is read at 560Ex/590Em, and IC50 or EC50 values are calculated using GraphPad Prism 5.

A further assay deals with T1, PI3K β (Homo sapiens, UniProt P42338).
T1 construct: purchased Upstate
T1 sequence (P42338 whole entry): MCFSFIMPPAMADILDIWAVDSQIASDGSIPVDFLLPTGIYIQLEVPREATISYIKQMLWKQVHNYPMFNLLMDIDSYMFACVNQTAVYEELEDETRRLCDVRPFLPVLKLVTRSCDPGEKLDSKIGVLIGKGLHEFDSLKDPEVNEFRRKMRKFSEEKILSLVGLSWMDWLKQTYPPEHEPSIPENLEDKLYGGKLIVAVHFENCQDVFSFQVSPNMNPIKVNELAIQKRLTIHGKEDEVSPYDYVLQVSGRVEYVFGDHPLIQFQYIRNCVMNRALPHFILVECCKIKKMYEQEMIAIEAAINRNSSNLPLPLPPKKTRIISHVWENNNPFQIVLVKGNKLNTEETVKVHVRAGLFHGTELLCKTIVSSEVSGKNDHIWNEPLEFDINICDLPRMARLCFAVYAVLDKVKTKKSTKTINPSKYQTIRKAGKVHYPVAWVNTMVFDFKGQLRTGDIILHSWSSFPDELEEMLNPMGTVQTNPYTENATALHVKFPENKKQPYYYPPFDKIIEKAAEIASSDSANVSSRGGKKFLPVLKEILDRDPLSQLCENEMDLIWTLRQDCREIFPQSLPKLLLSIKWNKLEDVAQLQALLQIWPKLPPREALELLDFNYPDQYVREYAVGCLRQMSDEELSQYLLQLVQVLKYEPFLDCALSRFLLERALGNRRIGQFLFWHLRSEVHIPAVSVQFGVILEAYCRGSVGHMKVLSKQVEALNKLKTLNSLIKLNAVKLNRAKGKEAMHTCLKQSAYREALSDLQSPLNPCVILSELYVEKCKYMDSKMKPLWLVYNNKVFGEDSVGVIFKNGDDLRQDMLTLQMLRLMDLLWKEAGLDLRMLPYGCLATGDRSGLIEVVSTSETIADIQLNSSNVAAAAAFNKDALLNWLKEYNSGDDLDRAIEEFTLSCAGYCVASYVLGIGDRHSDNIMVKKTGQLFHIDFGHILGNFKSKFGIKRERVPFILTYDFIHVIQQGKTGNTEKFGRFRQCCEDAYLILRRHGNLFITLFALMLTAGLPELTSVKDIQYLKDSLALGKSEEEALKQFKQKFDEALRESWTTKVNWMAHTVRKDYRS
T1 sequence (P27986 whole entry partner): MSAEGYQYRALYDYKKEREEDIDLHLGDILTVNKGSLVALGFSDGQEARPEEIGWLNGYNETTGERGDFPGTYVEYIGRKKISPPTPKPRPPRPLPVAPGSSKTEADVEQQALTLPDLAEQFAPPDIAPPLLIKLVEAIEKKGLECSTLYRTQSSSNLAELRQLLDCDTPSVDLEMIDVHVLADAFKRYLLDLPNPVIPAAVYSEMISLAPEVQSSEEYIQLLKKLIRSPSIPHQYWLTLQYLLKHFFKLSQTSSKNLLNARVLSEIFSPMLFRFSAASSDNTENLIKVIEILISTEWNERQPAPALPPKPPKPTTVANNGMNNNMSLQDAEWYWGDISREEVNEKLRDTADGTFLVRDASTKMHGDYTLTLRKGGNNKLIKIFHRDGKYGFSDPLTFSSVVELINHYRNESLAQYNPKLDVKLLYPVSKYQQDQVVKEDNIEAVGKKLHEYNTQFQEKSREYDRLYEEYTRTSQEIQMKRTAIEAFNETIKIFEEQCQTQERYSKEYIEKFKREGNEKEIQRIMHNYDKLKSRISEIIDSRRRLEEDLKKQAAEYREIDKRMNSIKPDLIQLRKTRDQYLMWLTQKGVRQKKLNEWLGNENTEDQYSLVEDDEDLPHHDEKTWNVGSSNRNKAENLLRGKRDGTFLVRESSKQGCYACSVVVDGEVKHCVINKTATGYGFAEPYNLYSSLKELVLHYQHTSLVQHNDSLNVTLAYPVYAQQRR
Kind of assay: In vitro PI3K β inhibition assay. The class given is biochemical. The procedure: (§1) Class I PI3-Ks can be either purchased (p110α/p85α, p110β/p85α, p110δ/p85α from Upstate, and p110γ from Sigma) or expressed as previously described (Knight et al., 2004). IC50 values are measured using either a standard TLC assay for lipid kinase activity (described below) or a high-throughput membrane capture assay. Kinase reactions are performed by preparing a reaction mixture containing kinase, inhibitor (2% DMSO final concentration), buffer (25 mM HEPES, pH 7.4, 10 mM MgCl2), and freshly sonicated phosphatidylinositol (100 μg/ml). Reactions are initiated by the addition of ATP containing 10 μCi of γ-32P-ATP to a final concentration of 10 or 100 μM and allowed to proceed for 5 minutes at room temperature. For TLC analysis, reactions are then terminated by the addition of 105 μl 1N HCl followed by 160 μl CHCl3:MeOH (1:1). The biphasic mixture is vortexed, briefly centrifuged, and the organic phase is transferred to a new tube using a gel loading pipette tip precoated with CHCl3. This extract is spotted on TLC plates and developed for 3-4 hours in a 65:35 solution of n-propanol:1M acetic acid. The TLC plates are then dried, exposed to a phosphorimager screen (Storm, Amersham), and quantitated. For each compound, kinase activity is measured at 10-12 inhibitor concentrations representing two-fold dilutions from the highest concentration tested (typically, 200 μM).
(§2) Other commercial kits or systems for assaying PI3-K activities are available. The commercially available kits or systems can be used to screen for inhibitors and/or agonists of PI3-Ks including, but not limited to, PI 3-Kinase α, β, δ, and γ. An exemplary system is PI 3-Kinase (human) HTRF™ Assay from Upstate. […] Briefly, the assay is a time resolved FRET assay that indirectly measures PIP3 product formed by the activity of a PI3-K. The kinase reaction is performed in a microtiter plate (e.g., a 384 well microtiter plate). The total reaction volume is approximately 20 μl per well. In the first step, each well receives 2 μl of test compound in 20% dimethylsulphoxide resulting in a 2% DMSO final concentration. Next, approximately 14.5 μl of a kinase/PIP2 mixture (diluted in 1× reaction buffer) is added per well for a final concentration of 0.25-0.3 μg/ml kinase and 10 μM PIP2. The plate is sealed and incubated for 15 minutes at room temperature. To start the reaction, 3.5 μl of ATP (diluted in 1× reaction buffer) is added per well for a final concentration of 10 μM ATP. The plate is sealed and incubated for 1 hour at room temperature. The reaction is stopped by adding 5 μl of Stop Solution per well and then 5 μl of Detection Mix is added per well. The plate is sealed, incubated for 1 hour at room temperature, and then read on an appropriate plate reader. Data is analyzed and IC50s are generated using GraphPad Prism 5.

The next assay concerns the target T2, PI3K γ (Homo sapiens, UniProt P48736).
T2 construct: purchased Sigma
Kind of assay: In vitro PI3K γ inhibition assay. Format: biochemical. The procedure: (§3) Class I PI3-Ks can be either purchased (p110α/p85α, p110β/p85α, p110δ/p85α from Upstate, and p110γ from Sigma) or expressed as previously described (Knight et al., 2004). IC50 values are measured using either a standard TLC assay for lipid kinase activity (described below) or a high-throughput membrane capture assay. Kinase reactions are performed by preparing a reaction mixture containing kinase, inhibitor (2% DMSO final concentration), buffer (25 mM HEPES, pH 7.4, 10 mM MgCl2), and freshly sonicated phosphatidylinositol (100 μg/ml). Reactions are initiated by the addition of ATP containing 10 μCi of γ-32P-ATP to a final concentration of 10 or 100 μM and allowed to proceed for 5 minutes at room temperature. For TLC analysis, reactions are then terminated by the addition of 105 μl 1N HCl followed by 160 μl CHCl3:MeOH (1:1). The biphasic mixture is vortexed, briefly centrifuged, and the organic phase is transferred to a new tube using a gel loading pipette tip precoated with CHCl3. This extract is spotted on TLC plates and developed for 3-4 hours in a 65:35 solution of n-propanol:1M acetic acid. The TLC plates are then dried, exposed to a phosphorimager screen (Storm, Amersham), and quantitated. For each compound, kinase activity is measured at 10-12 inhibitor concentrations representing two-fold dilutions from the highest concentration tested (typically, 200 μM). […] Other commercial kits or systems for assaying PI3-K activities are available. The commercially available kits or systems can be used to screen for inhibitors and/or agonists of PI3-Ks including, but not limited to, PI 3-Kinase α, β, δ, and γ. An exemplary system is PI 3-Kinase (human) HTRF™ Assay from Upstate. […] Briefly, the assay is a time resolved FRET assay that indirectly measures PIP3 product formed by the activity of a PI3-K. The kinase reaction is performed in a microtiter plate (e.g., a 384 well microtiter plate). The total reaction volume is approximately 20 μl per well. In the first step, each well receives 2 μl of test compound in 20% dimethylsulphoxide resulting in a 2% DMSO final concentration. Next, approximately 14.5 μl of a kinase/PIP2 mixture (diluted in 1× reaction buffer) is added per well for a final concentration of 0.25-0.3 μg/ml kinase and 10 μM PIP2. The plate is sealed and incubated for 15 minutes at room temperature. To start the reaction, 3.5 μl of ATP (diluted in 1× reaction buffer) is added per well for a final concentration of 10 μM ATP. The plate is sealed and incubated for 1 hour at room temperature. The reaction is stopped by adding 5 μl of Stop Solution per well and then 5 μl of Detection Mix is added per well. The plate is sealed, incubated for 1 hour at room temperature, and then read on an appropriate plate reader. Data is analyzed and IC50s are generated using GraphPad Prism 5.

The target of the next assay is T3, PI3K α (Homo sapiens, UniProt P42336).
T3 construct: purchased Upstate
T3 sequence (P42336 whole entry): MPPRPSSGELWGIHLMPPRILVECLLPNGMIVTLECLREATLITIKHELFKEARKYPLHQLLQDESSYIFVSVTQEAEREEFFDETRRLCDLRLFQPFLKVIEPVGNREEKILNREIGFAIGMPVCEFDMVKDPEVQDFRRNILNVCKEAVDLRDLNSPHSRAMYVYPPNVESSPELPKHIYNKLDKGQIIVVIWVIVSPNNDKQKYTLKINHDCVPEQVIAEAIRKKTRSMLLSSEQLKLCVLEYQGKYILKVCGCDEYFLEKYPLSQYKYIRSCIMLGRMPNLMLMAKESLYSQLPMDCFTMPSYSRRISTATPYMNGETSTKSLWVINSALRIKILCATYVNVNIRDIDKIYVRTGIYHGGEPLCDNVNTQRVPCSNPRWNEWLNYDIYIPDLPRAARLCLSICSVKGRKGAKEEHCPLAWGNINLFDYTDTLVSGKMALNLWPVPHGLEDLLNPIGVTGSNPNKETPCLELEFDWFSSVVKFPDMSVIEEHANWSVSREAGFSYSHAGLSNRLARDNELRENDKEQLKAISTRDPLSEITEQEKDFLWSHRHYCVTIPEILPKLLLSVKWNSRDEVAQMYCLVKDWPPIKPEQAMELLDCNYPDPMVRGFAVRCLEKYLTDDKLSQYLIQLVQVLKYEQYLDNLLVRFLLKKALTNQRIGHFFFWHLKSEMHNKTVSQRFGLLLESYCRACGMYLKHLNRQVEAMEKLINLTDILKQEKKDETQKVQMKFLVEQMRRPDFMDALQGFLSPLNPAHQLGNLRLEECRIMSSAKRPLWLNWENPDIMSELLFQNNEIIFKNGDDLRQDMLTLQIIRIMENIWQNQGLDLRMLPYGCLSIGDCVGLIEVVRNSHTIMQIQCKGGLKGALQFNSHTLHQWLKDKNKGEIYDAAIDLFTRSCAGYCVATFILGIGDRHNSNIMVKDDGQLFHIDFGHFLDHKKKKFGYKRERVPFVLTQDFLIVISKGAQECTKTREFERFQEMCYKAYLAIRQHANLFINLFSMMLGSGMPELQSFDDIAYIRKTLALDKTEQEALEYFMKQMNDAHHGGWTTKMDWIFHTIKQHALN
T3 sequence (P27986 whole entry partner): as the sequence (P27986 whole entry partner) above
Kind of assay: In vitro PI3K α inhibition assay. Format: biochemical. The procedure: as §1, §2

For the next assay, the target named is T4, PI3K δ (Homo sapiens, UniProt O00329).
T4 construct: purchased Upstate
T4 sequence (O00329 whole entry): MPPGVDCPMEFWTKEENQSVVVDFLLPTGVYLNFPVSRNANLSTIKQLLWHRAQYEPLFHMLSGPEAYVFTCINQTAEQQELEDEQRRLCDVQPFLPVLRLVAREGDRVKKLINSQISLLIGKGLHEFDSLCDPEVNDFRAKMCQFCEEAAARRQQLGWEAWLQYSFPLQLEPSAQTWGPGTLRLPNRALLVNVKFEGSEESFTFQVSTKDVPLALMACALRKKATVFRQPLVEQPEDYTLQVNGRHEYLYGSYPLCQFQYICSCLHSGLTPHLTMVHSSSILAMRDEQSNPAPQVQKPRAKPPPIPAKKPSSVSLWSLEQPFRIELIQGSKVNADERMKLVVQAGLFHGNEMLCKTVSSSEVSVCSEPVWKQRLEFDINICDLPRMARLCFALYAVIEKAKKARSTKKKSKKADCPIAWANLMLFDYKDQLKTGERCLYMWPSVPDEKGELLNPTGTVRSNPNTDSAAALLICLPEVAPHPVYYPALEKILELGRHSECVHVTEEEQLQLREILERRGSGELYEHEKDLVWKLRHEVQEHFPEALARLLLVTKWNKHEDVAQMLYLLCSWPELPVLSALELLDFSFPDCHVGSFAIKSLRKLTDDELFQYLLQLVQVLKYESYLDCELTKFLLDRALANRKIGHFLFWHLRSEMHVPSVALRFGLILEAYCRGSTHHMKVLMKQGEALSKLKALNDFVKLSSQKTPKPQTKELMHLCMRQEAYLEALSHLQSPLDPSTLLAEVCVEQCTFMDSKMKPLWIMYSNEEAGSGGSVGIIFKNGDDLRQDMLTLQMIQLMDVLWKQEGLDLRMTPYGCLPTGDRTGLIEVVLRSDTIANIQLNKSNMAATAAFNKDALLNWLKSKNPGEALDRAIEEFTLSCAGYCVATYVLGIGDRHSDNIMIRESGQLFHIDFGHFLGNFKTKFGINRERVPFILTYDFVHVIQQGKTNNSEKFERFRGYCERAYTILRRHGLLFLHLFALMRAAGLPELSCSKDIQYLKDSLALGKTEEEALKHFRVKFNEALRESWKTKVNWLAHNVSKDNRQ
T4 sequence (P27986 whole entry partner): as the sequence (P27986 whole entry partner) above
Description: In vitro PI3K δ inhibition assay. Format: biochemical. On the procedure: as §3

T2 sequence (P48736 whole entry): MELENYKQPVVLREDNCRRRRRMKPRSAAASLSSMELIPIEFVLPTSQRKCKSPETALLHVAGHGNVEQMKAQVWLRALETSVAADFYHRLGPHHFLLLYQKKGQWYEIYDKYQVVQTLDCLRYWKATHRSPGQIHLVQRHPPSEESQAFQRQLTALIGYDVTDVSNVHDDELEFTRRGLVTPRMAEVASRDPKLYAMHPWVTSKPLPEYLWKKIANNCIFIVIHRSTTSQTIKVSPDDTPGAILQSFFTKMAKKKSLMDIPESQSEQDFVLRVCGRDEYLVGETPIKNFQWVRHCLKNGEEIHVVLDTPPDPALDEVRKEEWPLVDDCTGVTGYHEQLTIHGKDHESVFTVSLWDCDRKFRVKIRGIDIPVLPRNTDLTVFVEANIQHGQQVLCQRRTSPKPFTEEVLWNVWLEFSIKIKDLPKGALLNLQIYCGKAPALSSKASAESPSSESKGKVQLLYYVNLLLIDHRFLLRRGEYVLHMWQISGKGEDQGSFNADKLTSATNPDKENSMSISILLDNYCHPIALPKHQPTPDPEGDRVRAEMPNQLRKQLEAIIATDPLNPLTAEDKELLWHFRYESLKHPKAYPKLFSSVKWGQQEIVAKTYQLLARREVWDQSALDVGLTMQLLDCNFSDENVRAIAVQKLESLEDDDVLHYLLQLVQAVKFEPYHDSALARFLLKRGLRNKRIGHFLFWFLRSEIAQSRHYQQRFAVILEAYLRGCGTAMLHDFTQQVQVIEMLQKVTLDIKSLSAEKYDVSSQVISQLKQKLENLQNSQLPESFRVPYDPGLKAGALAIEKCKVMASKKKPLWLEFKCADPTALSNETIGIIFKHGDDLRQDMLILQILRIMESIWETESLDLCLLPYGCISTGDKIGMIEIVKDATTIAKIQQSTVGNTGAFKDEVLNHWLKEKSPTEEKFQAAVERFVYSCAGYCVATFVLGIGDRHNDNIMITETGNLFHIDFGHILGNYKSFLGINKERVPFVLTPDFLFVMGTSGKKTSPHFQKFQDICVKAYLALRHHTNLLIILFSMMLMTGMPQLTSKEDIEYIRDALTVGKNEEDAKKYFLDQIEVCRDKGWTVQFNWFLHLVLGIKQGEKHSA

Take `C[C@H](Nc1nc(N)ncc1C(F)(F)F)c1cc2cccc(-c3cnn(C)c3)c2c(=O)n1C1CC1` [Compound 67]: the EC50 with Balb/c splenic B cells was less than 0.1 µM.

In general, IC50 refers to the concentration that inhibits the measured activity by half. Read a high IC50 as lower potency. Consider `C[C@H](Nc1ncnc2[nH]cc(C#N)c12)c1cc2cccc(-c3cnn(C)c3)c2c(=O)n1-c1ccccc1` [Compound 56], for which, at PI3K β, the IC50 is less than 10000 nM. The EC50 with Balb/c splenic B cells was less than 0.1 µM.

Regarding `Cc1ccc(-c2cccc3cc([C@H](C)Nc4ncnc(N)n4)n(-c4ccccc4)c(=O)c23)cn1` [Compound 34], the half-inhibitory concentration (IC50) on PI3K γ is less than 10000 nM. Further, the EC50 in the assay with Balb/c splenic B cells is less than 1 µM.

At PI3K α, `C[C@H](Nc1nc(N)ncc1C#N)c1cc2cccc(-c3cnn(C)c3)c2c(=O)n1C1CC1` [Compound 72] had an IC50 of less than 10000 nM.

Consider `C[C@H](Nc1nc(N)nc2[nH]cnc12)c1cc2cccc(-c3cccnc3)c2c(=O)n1-c1ccccc1` [Compound 38], for which the IC50 at PI3K β is less than 10000 nM.

As to `C[C@H](Nc1ncnc2[nH]cnc12)c1cc2cccc(-n3cccn3)c2c(=O)n1-c1ccccc1` [Compound 29], the IC50 against PI3K γ was less than 10000 nM. Moreover, in the assay with Balb/c splenic B cells, the EC50 is less than 1 µM.

Turning to `C[C@H](Nc1ncnc2[nH]cnc12)c1cc2cccc(-c3cnn(C)c3)c2c(=O)[nH]1` [Compound 50], the IC50 against PI3K δ was less than 10000 nM.

As to `C[C@H](Nc1nc(N)ncc1C(F)(F)F)c1cc2cccc(-c3cnn(C)c3)c2c(=O)n1-c1ccccc1` [Compound 68], the EC50 with Balb/c splenic B cells was less than 0.1 µM.

On PI3K γ, `Cc1cn(-c2cccc3cc([C@H](C)Nc4ncnc5[nH]cnc45)n(-c4ccccc4)c(=O)c23)cn1` [Compound 31] displayed a half-inhibitory concentration (IC50) of less than 10000 nM. The EC50 in the assay on Balb/c splenic B cells was less than 0.1 µM.

As for `C[C@H](Nc1ncnc2[nH]cnc12)c1cc2cccc(N3CCCC3)c2c(=O)n1-c1ccccc1` [Compound 4, (S)-3-(1-((9H-purin-6-yl)amino)ethyl)-2-phenyl-8-(pyrrolidin-1-yl)isoquinolin-1 (2H)-one], the IC50 against PI3K δ and at PI3K γ was less than 10000 nM each time. The EC50 in the assay with Balb/c splenic B cells is less than 1 µM.

As to `Cc1ccc(-c2cccc3cc([C@H](C)Nc4nc(N)nc5[nH]cnc45)n(-c4ccccc4)c(=O)c23)cn1` [Compound 37], the IC50 against PI3K β was less than 10000 nM. For the same compound, the EC50 in the assay with Balb/c splenic B cells was less than 0.1 µM.

In turn, `C[C@H](Nc1ncnn2ccnc12)c1cc2cccc(-c3cnn(C)c3)c2c(=O)n1-c1ccccc1` [Compound 52] displayed an IC50 at PI3K α of less than 10000 nM. Also, in the assay with Balb/c splenic B cells, the EC50 was less than 0.1 µM.

Compound `Cc1ccc(-c2cccc3cc([C@H](C)Nc4ncnc5[nH]cnc45)n(-c4ccccc4)c(=O)c23)cn1` [Compound 27] came in with a half-maximal inhibitory concentration (IC50) on PI3K α of less than 10000 nM. In the assay on Balb/c splenic B cells, the EC50 was less than 0.1 µM.

`C[C@H](Nc1ncnc(N)c1C#N)c1cc2cccc(-c3cnn(C)c3)c2c(=O)n1-c1ccccc1` [Compound 73] displayed an IC50 against PI3K α of less than 10000 nM.

Take `C[C@H](Nc1ncnc(N)n1)c1cc2cccc(-c3cnn(C)c3)c2c(=O)n1-c1ccccc1` [Compound 33, 3-((S)-1-(4-amino-1,3,5-triazin-2-ylamino)ethyl)-8-(1-methyl-1H-pyrazol-4-yl)-2-phenylisoquinolin-1(2H)-one]: the IC50 against PI3K γ is less than 10000 nM. In addition, the EC50 in the assay with Balb/c splenic B cells was less than 0.1 µM.

For the compound `C[C@H](Nc1ncnc2[nH]cc(F)c12)c1cc2cccc(-c3cnn(C)c3)c2c(=O)n1C1CC1` [Compound 62], the IC50 at PI3K α and against PI3K β was less than 10000 nM throughout. Also, the EC50 in the assay with Balb/c splenic B cells was less than 0.1 µM.

Consider `COc1ncc(-c2cccc3cc([C@H](C)Nc4ncnc5[nH]cnc45)n(-c4ccccc4)c(=O)c23)cn1` [Compound 76], for which the IC50 at PI3K γ and on PI3K α was less than 10000 nM in each case.

For `C[C@H](Nc1nc(N)nc2[nH]cnc12)c1cc2cccc(-c3cnn(C)c3)c2c(=O)n1-c1ccccc1` [Compound 36], at PI3K β, the IC50 is less than 10000 nM. Besides, the EC50 with Balb/c splenic B cells is less than 0.1 µM.

On PI3K β, `Cc1cc(-c2cccc3cc([C@H](C)Nc4ncnc5[nH]cnc45)n(-c4ccccc4)c(=O)c23)ccn1` [Compound 41] yielded an IC50 of less than 10000 nM. For the same compound, the EC50 in the assay on Balb/c splenic B cells is less than 0.1 µM.

The compound `Cc1cnn(-c2cccc3cc([C@H](C)Nc4ncnc5[nH]cnc45)n(-c4ccccc4)c(=O)c23)c1` [Compound 30] came in with an IC50 against PI3K γ of less than 10000 nM. Also, in the assay on Balb/c splenic B cells, the EC50 is less than 1 µM.

On to `C[C@H](Nc1ncnc2[nH]cnc12)c1cc2cccc(N3CCN(C)CC3)c2c(=O)n1-c1ccccc1` [Compound 5, (S)-3-(1-((9H-purin-6-yl)amino)ethyl)-8-(4-methylpiperazin-1-yl)-2-phenylisoquinolin-1(2H)-one], for which, in the assay on Balb/c splenic B cells, the EC50 is less than 0.1 µM.

The compound `C[C@H](Nc1ncnc2[nH]cnc12)c1cc2cccc(-c3cnn(C)c3)c2c(=O)n1-c1cccc(F)c1` [Compound 45] yielded a half-inhibitory concentration (IC50) against PI3K α of less than 10000 nM. The EC50 in the assay with Balb/c splenic B cells was less than 0.1 µM.

Consider `C[C@H](Nc1ncnc2[nH]cc(C(N)=O)c12)c1cc2cccc(-c3cnn(C)c3)c2c(=O)n1-c1ccccc1` [Compound 58], for which the IC50 at PI3K α and on PI3K β was less than 10000 nM throughout.

Regarding `C[C@H](Nc1ncnn2cncc12)c1cc2cccc(-c3cnn(C)c3)c2c(=O)n1-c1ccccc1` [Compound 54], the 50% inhibitory concentration (IC50) at PI3K δ is less than 10000 nM.

On to `C[C@H](Nc1ncnc2[nH]cnc12)c1cc2cccc(-c3cccnc3)c2c(=O)[nH]1` [Compound 49], for which the EC50 in the assay with Balb/c splenic B cells was less than 0.1 µM.

For the origin of these results see US9738644B2, “Chemical compounds, compositions and methods for kinase modulation” (Infinity Pharmaceuticals, Inc., priority 2010, dated 2017).
